Assay results reported in US20200317639A1, “POLYMORPHS OF N-[(2,6-DIFLUORO-3-METHOXYPHENYL)METHYL]-3-(METHOXYMETHYL)-1-({4-[(2-OXOPYRIDIN-1YL)METHYL]PHENYL}METHYL)PYRAZOLE-4-CARBOXAMIDE” (KALVISTA PHARMACEUTICALS LIMITED, priority 2016, published 2020).
“Also recorded” adds a separate entry of the source. Each block holds one compound with its values, some of them ahead of it.

Columns and labels:
postoperative bleeding = conditions: in vivo; cited from earlier work
rats = conditions: systemic administration; cited from earlier work
[1] = in vivo; cited from earlier work
[2] = Gravimetric Vapour Sorption (GVS); type: physicochemical
Experimental: Gravimetric Vapour Sorption (GVS) data were collected using the following method: Approximately 10 mg of sample was placed into a wire-mesh vapour sorption balance pan and loaded into an ‘IgaSorp’ vapour sorption balance (Hiden Analytical Instruments). The sample was then dried by maintaining a 0% humidity environment until no further weight change was recorded. Subsequently, the sample was then subjected to a ramping profile from 0-90% RH at 10% RH increments, maintaining the sample at each step until equilibration had been attained (99% step completion). Upon reaching equilibration, the % RH within the apparatus was ramped to the next step and the equilibration procedure repeated. After completion of the sorption cycle, the sample was then dried using the same procedure. The weight change during the sorption/desorption cycles were then monitored, allowing for the hygroscopic nature of the sample to be determined.

[3] = Stability study, open vial, 40° C./75% RH, 7 and 28 days; type: physicochemical; conditions: for XRPD change on storage: open glass vial covered with tissue
Experimental: Further evidence of the suitability of the crystalline forms for pharmaceutical development is provided by the stability data disclosed herein. Form 1 of N-[(2,6-difluoro-3-methoxyphenyl)methyl]-3-(methoxymethyl)-1-({4-[(2-oxopyridin-1-yl)methyl]phenyl}methyl)pyrazole-4-carboxamide was stored at 40° C./75% RH in a open glass vial covered with tissue. […] (FIG. 3).
A sample of Form 1 was placed in an open vial covered with tissue in a dessicator under accelerated stability conditions of 40° C./75% RH. The sample was reanalysed after 7 days and 28 days by XRPD, STA and DSC using the same methods as described above.

[4] = Stability study, 40° C./75% RH 6 months and 25° C./60% RH 12 months, packed; type: physicochemical
Experimental: Yet further evidence of the suitability of the crystalline forms for pharmaceutical development is provided by additional stability data disclosed herein. Form 1 of N-[(2,6-difluoro-3-methoxyphenyl)methyl]-3-(methoxymethyl)-1-({4-[(2-oxopyridin-1-yl)methyl]phenyl}methyl)pyrazole-4-carboxamide was stored separately at two conditions of 40° C./75% RH for 6 months and 25° C./60% RH for 12 months packed into double polyethylene bags inside an HDPE bottle sealed with a screw cap closure.
Further samples of Form 1 were stored separately at two conditions of 40° C./75% RH for 6 months and 25° C./60% RH for 12 months packed into double polyethylene bags inside an HDPE bottle sealed with a screw cap closure. In this stability study X-Ray Powder Diffraction patterns were collected on a PANalytical X'Pert PRO diffractometer using CuKα radiation (45 kV, 40 mA), θ-θ goniometer, focusing mirror (Cu W/Si), divergence slit (½°), soller slits at both incident and diffracted beam (0.04 RAD), fixed mask (4 mm) and a PIXcel detector. The software used for data collection was X′Pert Data Collector, version 2.2f. The instrument was performance checked using a certified Standard Reference Material 640 d, Silicon Powder (NIST). XRPD patterns were acquired under ambient conditions via a transmission foil sample stage (polyimide—Kapton, TF-475, 7.5 μm thickness film). The specimen was examined with approximately 5 mg of the sample examined as dispensed onto the sample stage. The data collection range was 2.994-35.0056° […] with a step size of 0.0263° and a continuous scan speed of 0.202004° s^−1. No change in the XRPD diffractogram was observed after 6 months at 40° C./75% RH or after 12 months at 25° C./60% RH (FIG. 16).
Further tests on the samples of Form 1 stored at 25° C./60% RH and 40° C./75% RH were carried out as described in the table below.

Compound: aprotinin
- Postoperative bleeding (postoperative bleeding): may be used to decrease postoperative bleeding

Compound: N=C(N)c1ccc(CNC(=O)c2cnn(Cc3ccccc3)c2)cc1 [ASP-440]
- Hematoma expansion (rats): reduced hematoma expansion
- Oral availability [1]: poor oral availability

- %-Wt (dry basis), Desorption ([2]; 0.01 %-RH): 1.174 %-Wt
- %-Wt (dry basis), Adsorption ([2]; 0.012 %-RH): 0.003304 %-Wt
- %-Wt (dry basis), Adsorption ([2]; 0.013 %-RH): 0.004135 %-Wt
- %-Wt (dry basis), Desorption ([2]; 5.002 %-RH): 2.121 %-Wt
- %-Wt (dry basis), Adsorption ([2]; 10.022 %-RH): 0.3314 %-Wt
- %-Wt (dry basis), Desorption ([2]; 15.039 %-RH): 3.537 %-Wt
- %-Wt (dry basis), Adsorption ([2]; 20.014 %-RH): 0.7833 %-Wt
- %-Wt (dry basis), Desorption ([2]; 25.192 %-RH): 5.219 %-Wt
- %-Wt (dry basis), Adsorption ([2]; 30.014 %-RH): 1.246 %-Wt
- %-Wt (dry basis), Desorption ([2]; 34.985 %-RH): 6.774 %-Wt
- %-Wt (dry basis), Adsorption ([2]; 40.009 %-RH): 1.892 %-Wt
- %-Wt (dry basis), Desorption ([2]; 44.978 %-RH): 7.808 %-Wt
- %-Wt (dry basis), Adsorption ([2]; 49.999 %-RH): 2.49 %-Wt
- %-Wt (dry basis), Desorption ([2]; 55.023 %-RH): 8.516 %-Wt
- %-Wt (dry basis), Adsorption ([2]; 59.993 %-RH): 3.239 %-Wt
- %-Wt (dry basis), Desorption ([2]; 65.019 %-RH): 9.185 %-Wt
- %-Wt (dry basis), Adsorption ([2]; 69.992 %-RH): 4.507 %-Wt
- %-Wt (dry basis), Desorption ([2]; 75.011 %-RH): 9.927 %-Wt
- %-Wt (dry basis), Adsorption ([2]; 79.981 %-RH): 7.117 %-Wt
- %-Wt (dry basis), Desorption ([2]; 85.009 %-RH): 10.43 %-Wt
- %-Wt (dry basis), Adsorption ([2]; 89.98 %-RH): 10.71 %-Wt
- %-Wt (dry basis), Desorption ([2]; 89.98 %-RH): 10.71 %-Wt
Compound: COCc1nn(Cc2ccc(Cn3ccccc3=O)cc2)cc1C(=O)NCc1c(F)ccc(OC)c1F [Form A, N-[(2,6-Difluoro-3-methoxyphenyl)methyl]-3-(methoxymethyl)-1-({4-[(2-oxopyridin-1-yl)methyl]phenyl}methyl)pyrazole-4-carboxamide]

- XRPD change on storage ([3]; 40° C./75% RH, 7 days): no change
- XRPD change on storage ([3]; 40° C./75% RH, 28 days): no change
- DSC onset temperature ([3]; 40° C./75% RH, open vial, after 7 days): 155.2 °C
- DSC onset temperature ([3]; 40° C./75% RH, open vial, after 28 days): 155.0 °C
- DSC onset temperature ([3]; initial timepoint): 154.9 °C
- Appearance ([4]; 25° C./60% RH, 12 months): As initial
- Assay (% w/w on an anhydrous basis) ([4]; 25° C./60% RH, 12 months): 99.94 % w/w
- Assay (% w/w “as-is”) ([4]; 25° C./60% RH, 12 months): 99.78 % w/w
- DSC Onset ([4]; 25° C./60% RH, 12 months): Onset = 156.8 °C
- DSC Peak ([4]; 25° C./60% RH, 12 months): Peak = 159.5 °C
- Purity (% area) ([4]; 25° C./60% RH, 12 months): 100 % area
- Water content (% w/w) ([4]; 25° C./60% RH, 12 months): 0.12 % w/w
- XRPD ([4]; 25° C./60% RH, 12 months): no change; also recorded: As initial
- Appearance ([4]; 40° C./75% RH, 6 months): As initial
- Assay (% w/w on an anhydrous basis) ([4]; 40° C./75% RH, 6 months): 99.31 % w/w
- Assay (% w/w “as-is”) ([4]; 40° C./75% RH, 6 months): 99.1 % w/w
- DSC Onset ([4]; 40° C./75% RH, 6 months): Onset = 157.5 °C
- DSC Peak ([4]; 40° C./75% RH, 6 months): Peak = 159.8 °C
- Impurity Profile by HPLC (% area), Approx RRT 1.16 ([4]; 40° C./75% RH, 6 months): 0.03 % area
- Purity (% area) ([4]; 40° C./75% RH, 6 months): 99.99 % area
- Water content (% w/w) ([4]; 40° C./75% RH, 6 months): 0.17 % w/w
- XRPD ([4]; 40° C./75% RH, 6 months): no change; also recorded: As initial
- Appearance ([4]; Initial, 0 months): A white solid. Free from
- Assay (% w/w on an anhydrous basis) ([4]; Initial, 0 months): 100.18 % w/w
- DSC Onset ([4]; Initial, 0 months): Onset = 156.3 °C
- DSC Peak ([4]; Initial, 0 months): Peak = 158.9 °C
- Impurity Profile by HPLC (% area), Approx RRT 1.12 ([4]; Initial, 0 months): 0.03 % area
- Purity (% area) ([4]; Initial, 0 months): 100 % area
- Water content (% w/w) ([4]; Initial, 0 months): 0.19 % w/w
- XRPD ([4]; Initial, 0 months): Conforms to Form 1
- All measured parameters including Assay, Water Content, XRPD, DSC, Purity and Impurity Profile ([4]; over the course of the study (6 months 40° C./75% RH, 12 months 25° C./60% RH)): remained unchanged
- Hygroscopicity by GVS [2]: absence of significant hygroscopicity
- %-Wt (dry basis), Adsorption ([2]; 0.007 %-RH): 0.000001 %-Wt
- %-Wt (dry basis), Adsorption ([2]; 0.008 %-RH): 0.001373 %-Wt
- %-Wt (dry basis), Desorption ([2]; 0.32 %-RH): 0.002745 %-Wt
- %-Wt (dry basis), Desorption ([2]; 5 %-RH): 0.04664 %-Wt
- %-Wt (dry basis), Adsorption ([2]; 10.023 %-RH): 0.07544 %-Wt
- %-Wt (dry basis), Desorption ([2]; 14.995 %-RH): 0.09053 %-Wt
- %-Wt (dry basis), Adsorption ([2]; 20.021 %-RH): 0.1619 %-Wt
- %-Wt (dry basis), Desorption ([2]; 24.99 %-RH): 0.1934 %-Wt
- %-Wt (dry basis), Adsorption ([2]; 30.013 %-RH): 0.2634 %-Wt
- %-Wt (dry basis), Desorption ([2]; 34.982 %-RH): 0.2908 %-Wt
- %-Wt (dry basis), Adsorption ([2]; 40.002 %-RH): 0.3978 %-Wt
- %-Wt (dry basis), Desorption ([2]; 44.976 %-RH): 0.4554 %-Wt
- %-Wt (dry basis), Adsorption ([2]; 50.002 %-RH): 0.5926 %-Wt
- %-Wt (dry basis), Desorption ([2]; 55.026 %-RH): 0.6474 %-Wt
- %-Wt (dry basis), Adsorption ([2]; 59.996 %-RH): 0.8573 %-Wt
- %-Wt (dry basis), Desorption ([2]; 65.02 %-RH): 1.033 %-Wt
- %-Wt (dry basis), Adsorption ([2]; 69.993 %-RH): 1.311 %-Wt
- %-Wt (dry basis), Desorption ([2]; 75.011 %-RH): 1.653 %-Wt
- %-Wt (dry basis), Adsorption ([2]; 79.987 %-RH): 2.17 %-Wt
- %-Wt (dry basis), Desorption ([2]; 85.005 %-RH): 2.905 %-Wt
- %-Wt (dry basis), Adsorption ([2]; 89.98 %-RH): 4.173 %-Wt
- %-Wt (dry basis), Desorption ([2]; 89.98 %-RH): 4.173 %-Wt
Compound: COCc1nn(Cc2ccc(Cn3ccccc3=O)cc2)cc1C(=O)NCc1c(F)ccc(OC)c1F [Form 1, N-[(2,6-difluoro-3-methoxyphenyl)methyl]-3-(methoxymethyl)-1-({4-[(2-oxopyridin-1-yl)methyl]phenyl}methyl)pyrazole-4-carboxamide]
- Reversibility of hydration (hysteresis) by GVS ([2]; FIG. 4): hydration is reversible (i.e. no significant hysteresis)
- Increase in water content by GVS ([2]; normal conditions (up to 70% relative humidity)): only a relatively gradual increase in water content
